This is an account of results in patent US20240122180A1, “FUNGICIDAL HALOMETHYL KETONES AND HYDRATES AND THEIR MIXTURES” (FMC Corporation, priority 2020, published 2024).

Each structure is given as a SMILES string. Marks after values point to notes of the source that are not given here.

Holding throughout (type): in vivo
Holding throughout (conditions): 100 = 100% disease control

Experiment [1] relates to Phakopsora pachyrhizi (the causal agent of Asian soybean rust). The experiment can be described thus: Test A: preventive spray on soybean seedlings, visual disease rating (100 = 100% control; * 50 ppm, ** 10 ppm, *** 250 ppm). The gist of the method:
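Soybean seedlings sprayed to run-off with compound suspended in acetone/water with 250 ppm PEG400 surfactant, inoculated next day with P. pachyrhizi spores. Kept 24 h saturated at 22 °C, then 8 days at 22 °C before visual rating of disease control (0-100) relative to controls.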

Experiment [2] concerns Uncinula necator (the causal agent of grape powdery mildew). The experiment can be described thus: Test C: preventive spray on grape seedlings, disease rating (100 = 100% control; * 50 ppm, ** 10 ppm, *** 250 ppm). Put shortly:
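Grape seedlings sprayed to run-off with compound suspended in acetone/water (50/50) with 250 ppm PEG400, then inoculated next day with Uncinula necator spores. Kept at 20 °C for 12 days before disease rating, where 100 is full control and 0 none, relative to untreated controls.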

The subject of experiment [3] is Blumeria graminis f. sp. tritici (the causal agent of wheat powdery mildew). The experiment can be described thus: Test E: preventive spray on wheat seedlings, visual disease rating (100 = 100% control; * 50 ppm, ** 10 ppm, *** 250 ppm). Put shortly:
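Test suspension (3% acetone, acetone/water 50/50, 250 ppm PEG400) sprayed to run-off on wheat seedlings; inoculated next day with powdery mildew spore dust and kept 8 days at 20 °C. Visual rating, 100 = full and 0 = no control relative to untreated.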

Experiment [4] deals with Zymoseptoria tritici (the causal agent of wheat leaf blotch). Put plainly: Test D: preventive spray on wheat seedlings, disease rating (100 = 100% control; * 50 ppm, ** 10 ppm, *** 250 ppm). The gist of the method:
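Compounds first dissolved in acetone (3% of final volume), then suspended in 50/50 acetone/water with 250 ppm PEG400 and sprayed to run-off on wheat seedlings; Z. tritici spores inoculated next day. Incubated saturated at 24° C. 48 h, then 20° C. 17 days; disease control rated 0–100 versus controls.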

The subject of experiment [5] is Puccinia recondita f. sp. tritici (the causal agent of wheat leaf rust). The experiment can be described thus: Test B: preventive spray on wheat seedlings, disease rating (100 = 100% control; * 50 ppm, ** 10 ppm, *** 250 ppm). The gist of the method: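 Wheat seedlings sprayed to run-off with compound in acetone/water (50/50) containing 250 ppm PEG400, inoculated next day with Puccinia recondita f. sp. tritici spores. Held 24 h saturated at 20° C, then 6 days at 20° C; disease control rated 0–100 relative to controls.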

[6] abbreviates: 50 ppm test suspension, 0 = no control.
Setting [7] is: 250 ppm test suspension, 0 = no control.
[8] abbreviates: 10 ppm test suspension, 0 = no control.
Setting [9] is: 10 ppm test suspension, soybean seedlings.
Where [10] appears, read: 250 ppm test suspension, grape seedlings.
Where [11] appears, read: 250 ppm test suspension, wheat seedlings.
The mark [12] stands for this setting: 10 ppm test suspension, wheat seedlings.
Setting [13] is: 50 ppm test suspension, soybean seedlings.
Where [14] appears, read: 50 ppm test suspension, wheat seedlings.

In the case of `CCOC(=O)c1cnn(Cc2ccc(OCC(O)(O)C(F)(F)F)cc2F)c1` [Compound 376], in experiment [1] (setting [6]), the “Test A disease control rating” value is on record as 100%. Also, the “Test C disease control rating” value in experiment [2] (setting [6]) stood at 36%. Further, in experiment [3] (setting [7]), the “Test E disease control rating” value is 99*** %. In experiment [4] (setting [7]), the “Test D disease control rating” value is listed as 98*** %. The “Test B disease control rating” value in experiment [5] (setting [6]) is 92%.
With `CCOC(=O)c1cnn(-c2ccc(O/C=C(\OCC)C(F)(F)F)cc2)c1` [compound 316], in experiment [1] (setting [6]), the “Test A disease control rating” value is reported as 100%. Also, the “Test C disease control rating” value in experiment [2] (setting [6]) was 100%. Also, the “Test E disease control rating” value in experiment [3] (setting [6]) is given as 73%. The “Test D disease control rating” value in experiment [4] (setting [6]) turned out to be 2%. Besides, the “Test B disease control rating” value in experiment [5] (setting [6]) is 9%.
`O=C(NCC1CC1)c1cnc(Cc2ccc(OCC3(C(F)(F)F)OCCO3)cc2)s1` [compound 259]: in experiment [1] (setting [8]), the “Test A disease control rating” value amounted to 25%. Further, in experiment [2] (setting [7]), the “Test C disease control rating” value is listed as 31*** %. In addition, in experiment [3] (setting [7]), the “Test E disease control rating” value was 83*** %. In addition, in experiment [4] (setting [7]), the “Test D disease control rating” value is recorded as 88*** %. The “Test B disease control rating” value in experiment [5] (setting [8]) is given as 0%.
For the compound `CCCOC(=O)c1cnn(Cc2ccc(O/C=C(\OCC)C(F)(F)F)cc2)c1` [compound 217], in experiment [1] (setting [9]), the “Test A disease control rating” value was found to be 100%. The “Test C disease control rating” value in experiment [2] (setting [10]) is listed as 75*** %. In experiment [3] (setting [11]), the “Test E disease control rating” value was 96*** %. Also, the “Test D disease control rating” value in experiment [4] (setting [11]) was 23*** %. Moreover, the “Test B disease control rating” value in experiment [5] (setting [12]) is given as 0%.
As for `CCOC(=O)c1cnn(Cc2c(F)c(F)c(O/C=C(\OCC)C(F)(F)F)c(F)c2F)c1` [compound 464], the “Test A disease control rating” value in experiment [1] (setting [6]) worked out at 100%. In experiment [2] (setting [7]), the “Test C disease control rating” value is 73*** %. Moreover, the “Test E disease control rating” value in experiment [3] (setting [7]) is given as 99*** %. Also, the “Test D disease control rating” value in experiment [4] (setting [7]) was 4*** %. Moreover, the “Test B disease control rating” value in experiment [5] (setting [6]) stood at 0%.
As for `CCO/C(=C\Oc1ccc(Cn2cc(C(=O)OCC(C)=O)cn2)cc1)C(F)(F)F` [compound 216], the “Test A disease control rating” value in experiment [1] (setting [9]) is listed as 100%. Moreover, the “Test C disease control rating” value in experiment [2] (setting [10]) is given as 20*** %. Further, the “Test E disease control rating” value in experiment [3] (setting [11]) is reported as 87*** %. Also, the “Test D disease control rating” value in experiment [4] (setting [11]) is recorded as 37*** %. The “Test B disease control rating” value in experiment [5] (setting [12]) came out at 0%.
The matching figures for `O=C(NCC1CC1)c1cnc(Cc2ccc(OCC3(C(F)(F)F)OCCO3)cc2)o1` [compound 248]: 71%, 62*** %, 89*** %, 93*** % and 0%.
As to `CCOC(=O)c1cnn(Cc2ccc(SCC3(C(F)(F)F)OCCO3)cc2)c1` [compound 115], in experiment [1] (250 ppm test suspension, soybean seedlings), the “Test A disease control rating” value amounted to 0%. In addition, in experiment [2] (setting [10]), the “Test C disease control rating” value turned out to be 58%. In addition, the “Test E disease control rating” value in experiment [3] (setting [11]) is recorded as 56%. In addition, in experiment [4] (setting [11]), the “Test D disease control rating” value stood at 19%. In addition, the “Test B disease control rating” value in experiment [5] (setting [11]) came out at 0%.
As for `N#Cc1cnn(Cc2ccc(OCC(O)(O)C(F)(F)F)cc2)c1` [compound 206], the “Test A disease control rating” value in experiment [1] (setting [13]) amounted to 100%. Moreover, the “Test C disease control rating” value in experiment [2] (setting [10]) was 34*** %. The “Test E disease control rating” value in experiment [3] (setting [11]) was 93*** %. The “Test D disease control rating” value in experiment [4] (setting [11]) was 93*** %. The “Test B disease control rating” value in experiment [5] (setting [14]) is 98%.
Turning to `N#Cc1ccc(OCC(O)(O)C(F)(F)F)cc1` [compound 142], the “Test A disease control rating” value in experiment [1] (setting [9]) is on record as 92%. The “Test C disease control rating” value in experiment [2] (setting [10]) is reported as 19*** %. For the same compound, in experiment [3] (setting [11]), the “Test E disease control rating” value was 99*** %. The “Test D disease control rating” value in experiment [4] (setting [11]) is recorded as 100*** %. Also, the “Test B disease control rating” value in experiment [5] (setting [12]) was 100%.
Consider `CCO/C(=C\Oc1cccc(Cn2cc(C(=O)NCC(F)F)cn2)c1)C(F)(F)F` [compound 394], for which, in experiment [1] (setting [6]), the “Test A disease control rating” value was determined as 0%. The “Test C disease control rating” value in experiment [2] (setting [7]) is reported as 75*** %. Moreover, the “Test E disease control rating” value in experiment [3] (setting [7]) is 0*** %. Also, the “Test D disease control rating” value in experiment [4] (setting [7]) is reported as 24*** %. In experiment [5] (setting [6]), the “Test B disease control rating” value is given as 0%.
For `C#CCOC(=O)c1cnn(Cc2ccc(OCC(O)(O)C(F)(F)F)cc2)c1` [compound 44], in experiment [1] (setting [9]), the “Test A disease control rating” value worked out at 97%. For the same compound, in experiment [2] (setting [10]), the “Test C disease control rating” value is recorded as 16*** %. The “Test E disease control rating” value in experiment [3] (setting [11]) is given as 91*** %. The “Test D disease control rating” value in experiment [4] (setting [11]) is 98*** %. In experiment [5] (setting [12]), the “Test B disease control rating” value was determined as 85%.
Regarding `CCOC(=O)c1cnn(Cc2ccc(O/C=C(\OCC)C(F)(F)F)c(C#N)c2)c1` [compound 416], the “Test A disease control rating” value in experiment [1] (setting [6]) turned out to be 81%. In addition, the “Test C disease control rating” value in experiment [2] (setting [7]) is 34*** %. Moreover, in experiment [3] (setting [7]), the “Test E disease control rating” value is 0*** %. Besides, in experiment [4] (setting [7]), the “Test D disease control rating” value is 0*** %. Also, in experiment [5] (setting [6]), the “Test B disease control rating” value was found to be 0%.
Take `CCO/C(=C\Oc1ccc(Cn2cc(C(=O)NC)cn2)cc1)C(F)(F)F` [compound 414]: the “Test A disease control rating” value in experiment [1] (setting [8]) worked out at 45%. Also, the “Test C disease control rating” value in experiment [2] (setting [7]) is reported as 91*** %. Besides, the “Test E disease control rating” value in experiment [3] (setting [7]) is reported as 90*** %. Also, the “Test D disease control rating” value in experiment [4] (setting [7]) is on record as 97*** %. Also, in experiment [5] (setting [8]), the “Test B disease control rating” value was determined as 0%.
For `O=C(NCC1CC1)c1cnc(Cc2ccc(OCC(O)(O)C(F)(F)F)cc2)o1` [compound 247], in experiment [1] (setting [9]), the “Test A disease control rating” value was determined as 13%. Moreover, the “Test C disease control rating” value in experiment [2] (setting [10]) is 21*** %. For the same compound, the “Test E disease control rating” value in experiment [3] (setting [11]) was 21*** %. Further, the “Test D disease control rating” value in experiment [4] (setting [11]) is reported as 79*** %. In addition, the “Test B disease control rating” value in experiment [5] (setting [12]) was 0%.
Take `CCOC(=O)c1cnnn1Cc1ccc(O/C=C(\OCC)C(F)(F)F)cc1` [compound 120]: the “Test A disease control rating” value in experiment [1] (setting [13]) stood at 100%. Moreover, the “Test C disease control rating” value in experiment [2] (50 ppm test suspension, grape seedlings) stood at 23%. The “Test E disease control rating” value in experiment [3] (setting [14]) is given as 98%. Also, the “Test D disease control rating” value in experiment [4] (setting [14]) was 17%. The “Test B disease control rating” value in experiment [5] (setting [14]) was determined as 0%.
Regarding `CCO/C(=C\Oc1cccc(Cn2cc(C(=O)NCC3CC3)cn2)c1)C(F)(F)F` [compound 393], the “Test A disease control rating” value in experiment [1] (setting [6]) came to 38%. Moreover, the “Test C disease control rating” value in experiment [2] (setting [7]) was 63*** %. Moreover, the “Test E disease control rating” value in experiment [3] (setting [7]) is recorded as 0*** %. For the same compound, the “Test D disease control rating” value in experiment [4] (setting [7]) is 69*** %. Also, the “Test B disease control rating” value in experiment [5] (setting [6]) turned out to be 0%.
For the compound `CCOC(=O)c1cnn(Cc2ccc(O/C=C(\OCC)C(F)(F)F)c(Cl)c2)c1` [compound 458], in experiment [1] (setting [8]), the “Test A disease control rating” value came to 100%. Also, the “Test C disease control rating” value in experiment [2] (setting [7]) is reported as 25*** %. Further, the “Test E disease control rating” value in experiment [3] (setting [7]) is 94*** %. For the same compound, the “Test D disease control rating” value in experiment [4] (setting [7]) was 41*** %. Also, the “Test B disease control rating” value in experiment [5] (setting [8]) turned out to be 0%.
The corresponding values for `CCO/C(=C\Oc1cccc(Cn2cc(C(=O)NCC(F)(F)F)cn2)c1)C(F)(F)F` [compound 401] are 0%, 35*** %, 0*** %, 0*** % and 0%.
